Patent US20220274961A1, “SUBSTITUTED FUSED BI- OR TRI- HETEROCYCLIC COMPOUNDS AS EHMT2 INHIBITORS” (priority 2016, published 2022)

How the values were obtained:
EHMT1 = target: T1, EHMT1 (Homo sapiens, UniProt Q9H9B1); experiment: EHMT1 PEP; assay type: biochemical
T1 sequence (Q9H9B1 1-1298): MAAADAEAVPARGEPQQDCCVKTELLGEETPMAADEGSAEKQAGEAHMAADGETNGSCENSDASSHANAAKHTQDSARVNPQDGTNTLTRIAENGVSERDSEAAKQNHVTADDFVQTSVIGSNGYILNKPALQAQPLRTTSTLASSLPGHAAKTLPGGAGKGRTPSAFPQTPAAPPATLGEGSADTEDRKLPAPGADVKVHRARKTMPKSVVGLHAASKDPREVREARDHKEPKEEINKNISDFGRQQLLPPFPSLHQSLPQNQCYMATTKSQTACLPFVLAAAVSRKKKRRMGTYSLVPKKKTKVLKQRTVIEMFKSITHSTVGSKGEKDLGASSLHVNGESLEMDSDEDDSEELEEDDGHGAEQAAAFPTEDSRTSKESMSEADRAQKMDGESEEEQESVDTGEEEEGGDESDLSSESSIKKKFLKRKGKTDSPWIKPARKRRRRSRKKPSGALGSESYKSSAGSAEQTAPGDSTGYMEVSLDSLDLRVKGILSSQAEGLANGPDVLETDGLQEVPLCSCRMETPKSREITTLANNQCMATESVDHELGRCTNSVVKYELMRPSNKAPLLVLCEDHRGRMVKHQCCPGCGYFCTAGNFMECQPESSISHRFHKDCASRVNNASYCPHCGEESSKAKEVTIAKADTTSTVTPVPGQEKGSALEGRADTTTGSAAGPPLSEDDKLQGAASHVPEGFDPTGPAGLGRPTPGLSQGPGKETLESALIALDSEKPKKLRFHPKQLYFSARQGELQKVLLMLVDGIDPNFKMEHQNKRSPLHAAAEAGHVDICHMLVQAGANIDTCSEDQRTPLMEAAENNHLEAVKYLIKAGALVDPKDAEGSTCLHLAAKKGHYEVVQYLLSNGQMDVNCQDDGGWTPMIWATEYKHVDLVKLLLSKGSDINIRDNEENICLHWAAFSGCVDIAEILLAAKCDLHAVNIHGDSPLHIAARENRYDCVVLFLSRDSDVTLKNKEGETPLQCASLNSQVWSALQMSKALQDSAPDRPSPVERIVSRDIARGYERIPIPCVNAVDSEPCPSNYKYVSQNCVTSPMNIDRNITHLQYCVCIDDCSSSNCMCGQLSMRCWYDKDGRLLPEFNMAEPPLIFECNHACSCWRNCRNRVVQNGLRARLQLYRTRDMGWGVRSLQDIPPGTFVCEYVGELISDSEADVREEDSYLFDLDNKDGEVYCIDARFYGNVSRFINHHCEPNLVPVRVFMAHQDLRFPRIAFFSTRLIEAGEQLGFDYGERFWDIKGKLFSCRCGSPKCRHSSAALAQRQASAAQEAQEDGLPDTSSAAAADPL

human EHMT2 913-1193 = target: T2, human EHMT2 913-1193 (Homo sapiens, UniProt Q96KQ7); experiment: biochemical; conditions: recombinant human EHMT2 913-1193, histone H3 1-15 peptide, 3H-SAM, balanced conditions; read-out: EHMT2 PEP (IC50 μM)
T2 construct: recombinant purified human EHMT2 913-1193, Viva; purchased Viva
T2 sequence (Q96KQ7 913-1193): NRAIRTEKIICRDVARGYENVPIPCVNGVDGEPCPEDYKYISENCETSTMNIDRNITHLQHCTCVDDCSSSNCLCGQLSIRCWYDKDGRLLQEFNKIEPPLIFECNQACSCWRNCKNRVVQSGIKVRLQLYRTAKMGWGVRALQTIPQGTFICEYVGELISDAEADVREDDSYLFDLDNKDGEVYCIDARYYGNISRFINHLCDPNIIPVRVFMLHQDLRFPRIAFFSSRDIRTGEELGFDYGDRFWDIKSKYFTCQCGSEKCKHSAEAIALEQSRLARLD
Description: Biotinylated histone peptides were synthesized by Biopeptide and HPLC-purified to >95% purity. Streptavidin Flashplates and seals were purchased from PerkinElmer and 384 Well V-bottom Polypropylene Plates were from Greiner. ^3H-labeled S-adenosylmethionine (^3H-SAM) was obtained from American Radiolabeled Chemicals with a specific activity of 80 Ci/mmol. Unlabeled SAM and S-adenosylhomocysteine (SAH) were obtained from American Radiolabeled Chemicals and Sigma-Aldrich respectively. […] 384-well Flashplates and 96-well filter binding plates were read on a TopCount microplate reader (PerkinElmer). Compound serial dilutions were performed on a Freedom EVO (Tecan) and spotted into assay plates using a Thermo Scientific Matrix PlateMate (Thermo Scientific). Reagent cocktails were added by Multidrop Combi (Thermo Scientific).
General Procedure for EHMT2 Enzyme Assay on Histone Peptide Substrate. 10-point curves of test compounds were made on a Freedom EVO (Tecan) using serial 3-fold dilutions in DMSO, beginning at 2.5 mM (final top concentration of compound was 50 μM and the DMSO was 2%). A 1 μL aliquot of the inhibitor dilution series was spotted in a polypropylene 384-well V-bottom plate (Greiner) using a Thermo Scientific Matrix PlateMate (Thermo Scientific). […] Reactions were incubated for 60 minutes at room temperature and quenched with 10 μL per well of 400 μM unlabeled SAM, then transferred to a 384-well streptavidin Flashplate (PerkinElmer) and washed in a Biotek ELx-405 well washer with 0.1% Tween after 60 minutes. 384-well Flashplates were read on a TopCount microplate reader (PerkinElmer).

IC50 (EHMT1) | IC50 (human EHMT2 913-1193) | SMILES
< 0.1 µM | < 0.1 µM | CCn1c(NC)nc2cc(OCCCN3CCCC3)c(OC)cc21 [Compound 42]
< 0.1 µM | < 0.1 µM | CNC1=Nc2cc(CNCCN3CCCC3)c(OC)cc2C12CCC2 [Compound 70]
< 0.1 µM | < 0.1 µM | CCNC1=Nc2cc(CNCCN3CCCC3)c(OC)cc2C12CCC2 [Compound 71]
< 0.1 µM | < 0.1 µM | CCNC1=Nc2cc(CNCCN3CCC3)c(OC)cc2C12CCC2 [Compound 72]
< 0.1 µM | < 0.1 µM | CCCNC1=Nc2cc(CNCCN3CCCC3)c(OC)cc2C12CCC2 [Compound 73]
< 0.1 µM | < 0.1 µM | CNC1=Nc2cc(C#CCN3CCCC3)c(OC)cc2C12CCC2 [Compound 74]
< 0.1 µM | < 0.1 µM | CNC1=Nc2cc(C#CCN3CCCCC3)c(OC)cc2C12CCC2 [Compound 75, 5′-methoxy-N-methyl-6′-(3-(piperidin-1-yl)prop-1-yn-1-yl)spiro[cyclobutane-1,3′-indol]-2′-amine]
1 to 10 µM | 1 to 10 µM | COc1cc2c(cc1CNCCN1CCCC1)N=C(NC1CCOCC1)C21CCC1 [Compound 76]
< 0.1 µM | < 0.1 µM | CNC1=Nc2cc(C#CC(C)N3CCCC3)c(OC)cc2C12CCC2 (centres unmarked) [Compound 84]
< 0.1 µM | < 0.1 µM | CNC1=Nc2cc(C#C[C@H](C)N3CCCC3)c(OC)cc2C12CCC2 [Compound 85]
0.1 to 1 µM | 0.1 to 1 µM | CNC1=Nc2cc(C#C[C@@H](C)N3CCCC3)c(OC)cc2C12CCC2 [Compound 86]
< 0.1 µM | < 0.1 µM | CNC1=Nc2cc(C#CC(C)N3CCCCC3)c(OC)cc2C12CCC2 (centres unmarked) [Compound 92]
< 0.1 µM | < 0.1 µM | COCCNC1=Nc2cc(C#CCN3CCCCC3)c(OC)cc2C12CCC2 [Compound 99]
0.1 to 1 µM | 0.1 to 1 µM | CNC1=Nc2cc(C#CCN3CCC(F)C3)c(OC)cc2C12CCC2 (centres unmarked) [Compound 100]
0.1 to 1 µM | 1 to 10 µM | CNc1nc2cc(CNCCN3CCCC3)c(Cl)cc2n1C(C)C [Compound 138]
0.1 to 1 µM | 1 to 10 µM | CNc1nc2cc(CNCCN3CCCC3)c(C)cc2n1C(C)C [Compound 139]
